“And” between values parts separate entries of the source, which are not always exact repeats. Equal entries are not always repeated. Structures can show the parent of a compound that is named as a salt. Where two headings read alike, the source gives them in different places.
What was measured:
MV-4-11 = experiment: Proliferation assay (spheroid assay) MV-4-11; format: cell-based, human
Outline: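 Cells were grown as spheroids in ultra-low attachment round-bottom wells with compound (0.3% DMSO) for 8 d at 37 °C, imaged every 4 h, with confluence as spheroid size. AUC of confluence versus time (t=0 baseline) was expressed as % of DMSO control, and absolute IC50 came from a least-squares nonlinear fit.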

MOLM14 = experiment: Proliferation assay (spheroid assay) MOLM14; format: cell-based, human; conditions: Homo sapiens
Description: (§1) The anti-proliferative effect of menin/MLL protein/protein interaction inhibitor test compounds was assessed in human leukemia cell lines. The cell lines MV-4-11 and MOLM14 harbor MLL translocations and express the MLL fusion proteins MLL-AF4 and MLL-AF9, respectively, as well as the wildtype protein from the second allele. […] K562 and KG1 were used as a control cell lines containing two MLL wildtype alleles in order to exclude compounds that display general cytotoxic effects.
(§2) MV-4-11 and MOLM14 were cultured in RPMI-1640 (Sigma Aldrich) supplemented with 10% fetal bovine serum (HyClone), 2 mM L-glutamine (Sigma Aldrich) and 50 μg/ml gentamycin (Gibco). K562 were propagated in RPMI-1640 (Sigma Aldrich) supplemented with 20% fetal bovine serum (HyClone), 2 mM L-glutamine (Sigma Aldrich) and 50 μg/ml gentamycin (Gibco). KG1 were cultured in Iscove's MDM (Gibco) supplemented with 20% fetal bovine serum (HyClone), 2 mM L-glutamine (Sigma Aldrich) and 50 μg/ml gentamycin (Gibco).
(§3) In order to assess the anti-proliferative effects, 1,500 MV-4-11, 300 MOLM14, 750 K562 or 1,300 KG1 cells were seeded in 200 μl media per well in 96-well round bottom, ultra-low attachment plates (Costar, catalogue number 7007). Cell seeding numbers were chosen based on growth curves to ensure linear growth throughout the experiment. Test compounds were added at different concentrations and the DMSO content was normalized to 0.3%. Cells were incubated for 8 d at 37° C. and 5% CO2. Spheroid like growth was monitored in real-time by live-cell imaging (IncuCyteZOOM, Essenbio, 4× objective) acquiring one image every four hours for 8 d. Confluence (%) as a measure of spheroid size was determined using an integrated analysis tool.
(§4) In order to determine the cumulative effect of the test compounds over time, the area under the curve (AUC) in a plot of confluence against time was calculated. Confluence at the beginning of the experiment (t=0) was used as baseline for the AUC calculation.
(§5) Absolute IC50 values were calculated according to the following procedure: % Control=(AUC sample/AUC control)*100
(§6) AUC control=mean AUC of control values (cells without compound/DMSO as vehicle control)
(§7) A non-linear curve fit was applied using the least squares (ordinary) fit method to the plot of % control versus compound concentration. Based on this, the absolute IC50 value (half maximal inhibitory concentration of the test compound causing an anti-proliferative effect of 50% relative to the vehicle control) was calculated.

K562 = experiment: Proliferation assay (spheroid assay) K562 control cell line; format: cell-based; conditions: Homo sapiens
Description: as §1, §2, §3, §4, §5, §6, §7

[1] = target: T1, Menin/MLL (terbium chelate-labeled menin, FITC-MBM1 peptide) (Homo sapiens, UniProt O00255, T541A); experiment: Menin/MLL homogenous time-resolved fluorescence (HTRF) assay; format: binding
T1 construct: Menin (a.a. 1-610-6×his tag) was labeled with terbium cryptate as follows
T1 sequence (O00255 with tags, fused parts or gaps T541A): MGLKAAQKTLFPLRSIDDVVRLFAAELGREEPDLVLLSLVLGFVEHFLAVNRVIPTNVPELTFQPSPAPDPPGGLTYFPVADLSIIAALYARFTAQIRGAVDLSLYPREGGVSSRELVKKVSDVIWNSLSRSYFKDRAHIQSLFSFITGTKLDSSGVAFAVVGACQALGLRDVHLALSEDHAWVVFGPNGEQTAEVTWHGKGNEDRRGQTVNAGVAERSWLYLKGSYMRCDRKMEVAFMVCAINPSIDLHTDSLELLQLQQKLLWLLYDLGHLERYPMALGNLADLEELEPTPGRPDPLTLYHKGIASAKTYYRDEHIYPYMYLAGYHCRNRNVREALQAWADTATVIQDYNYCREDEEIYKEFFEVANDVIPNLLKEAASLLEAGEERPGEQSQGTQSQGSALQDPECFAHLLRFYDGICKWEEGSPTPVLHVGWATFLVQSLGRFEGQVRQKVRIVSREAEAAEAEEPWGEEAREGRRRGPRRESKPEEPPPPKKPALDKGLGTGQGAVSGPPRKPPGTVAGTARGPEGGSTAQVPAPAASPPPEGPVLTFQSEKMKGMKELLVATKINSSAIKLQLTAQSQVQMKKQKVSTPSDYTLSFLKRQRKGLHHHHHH
Outline: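 Compound preincubated 5 min with terbium-cryptate-labeled menin (aa 1-610, His-tagged; 100 pM final), then 75 nM FITC-MBM1 peptide added, 15 min at ambient temperature; 0.5% DMSO, Tris pH 7.5 buffer. HTRF ratio 520/490 nm; % inhibition vs saturating competitor, IC50 from 11-point three-fold titration from 31 μM.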

KG1 = experiment: Proliferation assay (spheroid assay) KG1 control cell line; format: cell-based; conditions: Homo sapiens, KG-1, averaged values over all measurements
Description: as §1, §2, §3, §4, §5, §6, §7

[2] = target: T2, Menin/MLL (menin, FITC-MBM1 peptide) (Homo sapiens, UniProt O00255, T541A); experiment: Menin/MLL fluorescence polarization (FP) assay; format: binding; conditions: averaged values over all measurements; read-out: Menin FP assay (IC50)
T2 construct: 6xHis (C)
T2 sequence (O00255 with tags, fused parts or gaps T541A): T1 sequence (O00255 with tags, fused parts or gaps T541A)
Description: Pharmacological Part 1) Menin/MLL Fluorescence Polarization Assay
To a non-surface binding, black 384-well microtiter plate was added 50 nL 160× test compound in DMSO and 4 μL 2× menin in assay buffer (40 mM Tris-HCl, pH 7.5, 50 mM NaCl, 1 mM DTT and 0.001% Tween 20). After incubation of test compound and menin for 10 min at ambient temperature, 4 μL 2×FITC-MBM1 peptide (FITC-β-alanine-SARWRFPARPGT-NH2) in assay buffer was added, the microtiter plate centrifuged at 1000 rpm for 1 min and the assay mixtures incubated for 15 min at ambient temperature. The relative amount of menin: FITC-MBM1 complex present in an assay mixture is determined by measuring the fluorescence polarization (FP) of the FITC label with a BMG Pherastar plate reader (ex. 485 nm/em. 520 nm) at ambient temperature. The final concentrations of reagents in the binding assay are 100 nM menin, 5 nM FITC-MBM1 peptide and 0.625% DMSO in assay buffer. Dose-response titrations of test compounds are conducted using an 11 point, three-fold serial dilution scheme, starting at 31 μM.
Compound potencies were determined by first calculating % inhibition at each compound concentration according to equation 1: % inhibition=((HC−LC)−(FP^compound−LC))/(HC−LC))*100 (Eqn 1)
Where LC and HC are the FP values of the assay in the presence or absence of a saturating concentration of a compound that competes with FITC-MBM1 for binding to menin, and FP^compound is the measured FP value in the presence of the test compound. HC and LC FP values represent an average of at least 16 replicates per plate.
Where Bottom and Top are the lower and upper asymptotes of the dose-response curve, respectively, IC50 is the concentration of compound that yields 50% inhibition of signal and h is the Hill coefficient.

[3] = Homo sapiens, MV4-11, MV-4-11, averaged values over all measurements, read-out: Spheroid assay MV-4-11 (IC50)
[4] = MOLM-14, MOLM14, averaged values over all measurements, read-out: Spheroid assay MOLM14 (IC50)
[5] = K562 control cell line, averaged values over all measurements, read-out: Spheroid assay K562 (IC50)
[6] = averaged values over all measurements, read-out: Menin HTRF assay (IC50)

Compound	melting point	IC50 (MV-4-11; [3])	IC50 (MOLM14; [4])	IC50 (K562; [5])	IC50 [1, 6]	IC50 (KG1)	also measured
CC(C)CN1CCC2CN(c3ncnc4sc(CC(F)(F)F)cc34)CCC21 (centres unmarked) (as salt: HCl) [Compound 25]	140 °C	–	–	–	–	–	–
CC(C)(C)OC(=O)N1CCC(CN2CC[C@@H]3CN(c4ncnc5sc(CC(F)(F)F)cc45)C[C@@H]3C2)CC1 (single isomer, unassigned) [Compound 20]	–	0.38 µM	0.98 µM	> 15 µM	31 nM	–	–
FC(F)(F)Cc1cc2c(N3CCC4C(CCN4Cc4ncc[nH]4)C3)ncnc2s1 (centres unmarked) (as salt: HCl) [Compound 22]	140 °C	–	–	–	–	–	–
FC(F)(F)Cc1cc2c(N3C[C@@H]4CN(Cc5ccccc5)C[C@@H]43)ncnc2s1 [Compound 29]	134 °C	–	–	–	3450 nM	–	–
O=C([C@@H]1CC2(CC2)CN1)N1CC[C@@H]2CN(c3ncnc4sc(CC(F)(F)F)cc34)C[C@@H]2C1 (single isomer, unassigned) [Compound 81]	112 °C	5.7 µM	–	–	410 nM	–	–
O=S(=O)(c1ccccc1)N1CC[C@@H]2CN(c3ncnc4sc(CC(F)(F)F)cc34)CC[C@@H]21 (as salt: HCl) (hydrate or solvate) [Compound 16]	152 °C	–	–	–	–	–	–
O=C([C@@H]1CC2(CC2)CN1)N1CC[C@H]2CN(c3ncnc4sc(CC(F)(F)F)cc34)C[C@H]2C1 (single isomer, unassigned) [Compound 82]	105 °C	7.9 µM	–	–	653 nM	–	–
[2H]C([2H])(c1ccccc1)N1CC[C@@H]2CN(c3ncnc4sc(CC(F)(F)F)cc34)CC[C@@H]21 (single isomer, unassigned) [Compound 5]	–	–	–	–	–	–	IC50 (MV-4-11; MV-4-11, 8 d, individual measurements (not averaged), read-out: (2) Spheroid assay MV-4-11 (IC50 (μM))): 2.1 µM and > 15 µM; IC50 (MOLM14; MOLM-14, 192 h, MOLM14, 8 d, individual measurements (not averaged), read-out: (2) Spheroid assay MOLM14 (IC50 (μM))): 4.3 µM; IC50 (K562; 192 h, K562, 8 d, individual measurements (not averaged), read-out: (2) Spheroid assay K562 (IC50 (μM))): > 15 µM; IC50 ([1]; individual measurements (not averaged), read-out: (3) Menin HTRF assay (IC50 (nM))): 9 nM

The next lines start with results.

melting point	IC50 (MV-4-11; [3])	IC50 (MOLM14; [4])	IC50 (K562; [5])	IC50 [1, 6]	Compound	IC50 (KG1)	also measured
–	0.42 µM	2.2 µM	> 15 µM	54 nM	Cn1cc(CN2CC[C@H]3CN(c4ncnc5sc(CC(F)(F)F)cc45)C[C@H]3C2)cn1 (single isomer, unassigned) [Compound 71B]	> 15000 nM	–
140 °C	–	–	–	~1260 nM	FC(F)(F)Cc1cc2c(N3C[C@@H]4CCN(Cc5ccccc5)C[C@@H]43)ncnc2s1 (single isomer, unassigned) [Compound 30]	–	–
–	–	14.6 µM	> 15 µM	510 nM	Fc1ccccc1CN1CC[C@@H]2CN(c3ncnc4sc(CC(F)(F)F)cc34)CC[C@@H]21 (single isomer, unassigned) [Compound 7]	–	IC50 [2]: 630 nM
109 °C	1.8 µM	–	–	57 nM	CC(C)CN1CC[C@H]2CN(c3ncnc4sc(CC(F)(F)F)cc34)C[C@H]2C1 (single isomer, unassigned) [Compound 69]	–	–
150 °C	–	–	–	1080 nM	FC(F)(F)Cc1cc2c(N3C[C@H]4CCN(Cc5ccccc5)C[C@H]43)ncnc2s1 (single isomer, unassigned) [Compound 31]	–	–
–	0.28 µM	2 µM	> 15 µM	24 nM	FC(F)(F)Cc1cc2c(N3C[C@H]4CCN(CC5CCNCC5)C[C@H]4C3)ncnc2s1 (single isomer, unassigned) [Compound 70B]	–	–
–	0.22 µM	1.4 µM	> 15 µM	15 nM	CC(C)CN1CC[C@@H]2CN(c3ncnc4sc(CC(F)(F)F)cc34)C[C@@H]2C1 (single isomer, unassigned) [Compound 36]	> 15000 nM	–
160 °C	0.56 µM	1.4 µM	> 15 µM	18 nM	FC(F)(F)Cc1cc2c(N3C[C@H]4CCN(CC5CCOCC5)C[C@H]4C3)ncnc2s1 (single isomer, unassigned) [Compound 70]	> 15000 nM	–
–	0.84 µM	1.2 µM	–	74 nM	FC(F)(F)Cc1cc2c(N3C[C@H]4CCN(Cc5cccnc5Cl)C[C@H]4C3)ncnc2s1 (single isomer, unassigned) [Compound 41]	4500 nM	–
–	0.47 µM	1.6 µM	–	21 nM	FC(F)(F)Cc1cc2c(N3C[C@H]4CCN(Cc5ccc(Cl)nc5)C[C@H]4C3)ncnc2s1 (single isomer, unassigned) [Compound 42]	> 15000 nM	–
–	0.26 µM	1.6 µM	–	25 nM	Cc1ccc(CN2CC[C@@H]3CN(c4ncnc5sc(CC(F)(F)F)cc45)C[C@@H]3C2)cn1 (single isomer, unassigned) [Compound 40]	8100 nM	–
